This passage reports TD50 and carcinogen call results from PubChem BioAssay AID1745844 (Carcinogenic Potency Database (CPDB), 2022).

Molecules are shown by their SMILES. Calls of active or inactive are those of the source. How the calls were made is not given here. Numbered stars: 1 amine (or outer) side, 2 acyl side, 3 side chain; on linkers, the order of the positions; unused ones are H or OH. Bridge positions count the residues as written; N and C are the ends. Square brackets hold non-standard residues; d marks the D form. Peptide text beside a SMILES is read from it. I, II: the chains in the order shown. Actinocin(1to9) = Cc1c2oc3c(C)ccc(C(=O)[*:2])c3nc-2c(C(=O)[*:1])c(N)c1=O; NMeV = CN[C@H](C(=O)O)C(C)C; Sar = CNCC(=O)O

For the data set, the system named is rodent lifetime carcinogenesis bioassay, tumor incidence TD50. Description: carcinogenic potency in animals, long-term in vivo studies, CPDB compilation (AID 1745844).

As for `O=[O+][O-]`, the TD50 was determined as 1.88 mg/kg/day (mouse, strain B6C3F1, females, inhaled, site: lung, lesion: alveolar/bronchiolar adenoma + alveolar/bronchiolar carcinoma, dosed 105 weeks, study length 105 weeks); 2.09 mg/kg/day (mouse, strain B6C3F1, females, inhaled, site: lung, lesion: alveolar/bronchiolar adenoma + alveolar/bronchiolar carcinoma, dosed 130 weeks, study length 130 weeks); 1.78 mg/kg/day (mouse, strain B6C3F1, females, inhaled, site: lung, lesion: alveolar/bronchiolar adenoma, dosed 130 weeks, study length 130 weeks); 2.75 mg/kg/day (mouse, strain B6C3F1, females, inhaled, site: lung, lesion: alveolar/bronchiolar carcinoma, dosed 105 weeks, study length 105 weeks); 6.49 mg/kg/day (mouse, strain B6C3F1, females, inhaled, site: uterus, lesion: endometrial stromal polyp, dosed 105 weeks, study length 105 weeks); 0.997 mg/kg/day (mouse, strain B6C3F1, males, inhaled, site: any site (literature study), lesion: several types, types named in the paper, dosed 104 weeks, study length 104 weeks). In addition, the TD50 came to 1.54 mg/kg/day (mouse, strain B6C3F1, males, inhaled, site: any site (literature study), lesion: several types, types named in the paper, dosed 130 weeks, study length 130 weeks); 0.314 mg/kg/day (mouse, strain B6C3F1, males, inhaled, site: liver + mesentery + spleen, lesion: hemangiosarcoma, dosed 104 weeks, study length 104 weeks); 1.68 mg/kg/day (mouse, strain B6C3F1, males, inhaled, site: liver, lesion: hepatocellular adenoma + hepatoblastoma + hepatocellular carcinoma, dosed 104 weeks, study length 104 weeks); 2.02 mg/kg/day (mouse, strain B6C3F1, males, inhaled, site: liver, lesion: hepatocellular adenoma + hepatoblastoma + hepatocellular carcinoma, dosed 130 weeks, study length 130 weeks); 0.894 mg/kg/day (mouse, strain B6C3F1, males, inhaled, site: lung, lesion: alveolar/bronchiolar adenoma + alveolar/bronchiolar carcinoma, dosed 104 weeks, study length 104 weeks); 0.961 mg/kg/day (mouse, strain B6C3F1, males, inhaled, site: lung, lesion: alveolar/bronchiolar adenoma + alveolar/bronchiolar carcinoma, dosed 130 weeks, study length 130 weeks). Besides, the TD50 runs as follows: (mouse, strain B6C3F1, males, inhaled, site: lung, lesion: alveolar/bronchiolar carcinoma, dosed 130 weeks, study length 130 weeks) 0.633 mg/kg/day; (rat, strain Fischer 344, males, inhaled, site: any site (literature study), lesion: several types, types named in the paper, dosed 105 weeks, study length 105 weeks) 1.2 mg/kg/day; (rat, strain Fischer 344, males, inhaled, site: any site (literature study), lesion: several types, types named in the paper, dosed 122 weeks, study length 124 weeks) 0.138 mg/kg/day (inactive); (rat, strain Fischer 344, males, inhaled, site: liver, lesion: hepatocellular adenoma + hepatoblastoma + hepatocellular carcinoma, dosed 122 weeks, study length 124 weeks) 2.41 mg/kg/day; (rat, strain Fischer 344, males, inhaled, site: thyroid gland, lesion: c-cell adenoma + c-cell carcinoma, dosed 105 weeks, study length 105 weeks) 0.0156 mg/kg/day (inactive); (rat, strain Fischer 344, males, inhaled, site: thyroid gland, lesion: c-cell adenoma, dosed 105 weeks, study length 105 weeks) 0.019 mg/kg/day. The same molecule gave a TD50 (rat, strain Sprague-Dawley, males, inhaled, site: lung, lesion: adenoma, dosed 86 weeks, study length 86 weeks) of 0.204 mg/kg/day. In addition, the carcinogen call (rat, strain Fischer 344, females, inhaled, site: any site (literature study), lesion: several types, types named in the paper, dosed 104 weeks, study length 104 weeks) was “negative (inactive)” and the carcinogen call (rat, strain Fischer 344, females, inhaled, site: any site (literature study), lesion: several types, types named in the paper, dosed 124 weeks, study length 124 weeks) was “negative (inactive)”.
Consider `OC[C@H]1O[C@H](O[C@]2(CCl)O[C@H](CCl)[C@@H](O)[C@@H]2O)[C@H](O)[C@@H](O)[C@H]1Cl`, for which the carcinogen call (mouse, strain Charles River CD1, females, in feed, site: any site (literature study), lesion: several types, types named in the paper, dosed 104 weeks, study length 104 weeks) was “negative (inactive)”; the carcinogen call (mouse, strain Charles River CD1, females, in feed, site: liver, lesion: hepatocellular adenoma, dosed 104 weeks, study length 104 weeks) was “negative (inactive)”; the carcinogen call (mouse, strain Charles River CD1, females, in feed, site: lung, lesion: adenoma, dosed 104 weeks, study length 104 weeks) is “negative (inactive)”; the carcinogen call (mouse, strain Charles River CD1, females, in feed, site: lung, lesion: carcinoma, dosed 104 weeks, study length 104 weeks) is “negative (inactive)”; the carcinogen call (mouse, strain Charles River CD1, males, in feed, site: any site (literature study), lesion: several types, types named in the paper, dosed 104 weeks, study length 104 weeks) was “negative (inactive)”; the carcinogen call (mouse, strain Charles River CD1, males, in feed, site: liver, lesion: hepatocellular adenoma, dosed 104 weeks, study length 104 weeks) is “negative (inactive)”. Also, the carcinogen call (mouse, strain Charles River CD1, males, in feed, site: liver, lesion: hepatocellular carcinoma, dosed 104 weeks, study length 104 weeks) was “negative (inactive)” and the carcinogen call (mouse, strain Charles River CD1, males, in feed, site: lung, lesion: carcinoma, dosed 104 weeks, study length 104 weeks) is “negative (inactive)”. For the same molecule, the TD50 is 98200 mg/kg/day (inactive) (mouse, strain Charles River CD1, females, in feed, site: liver, lesion: hepatocellular carcinoma, dosed 104 weeks, study length 104 weeks) and 35100 mg/kg/day (inactive) (mouse, strain Charles River CD1, males, in feed, site: lung, lesion: adenoma, dosed 104 weeks, study length 104 weeks).
On to `CC(=O)Oc1c(C)c(C)c2c(c1C)CCC(C)(CCCC(C)CCCC(C)CCCC(C)C)O2` (centres undefined), for which the carcinogen call was “negative (inactive)” (rat, strain Charles River CD (Sprague-Dawley), females, in feed, site: any site (literature study), lesion: malignant tumor, dosed 104 weeks, study length 104 weeks); “negative (inactive)” (rat, strain Charles River CD (Sprague-Dawley), females, in feed, site: any site (literature study), lesion: several types, types named in the paper, dosed 104 weeks, study length 104 weeks); “negative (inactive)” (rat, strain Charles River CD (Sprague-Dawley), females, in feed, site: liver, lesion: one or several types, types not named, dosed 52 weeks, study length 52 weeks); “negative (inactive)” (rat, strain Charles River CD (Sprague-Dawley), females, in feed, site: liver, lesion: one or several types, types not named, dosed 104 weeks, study length 104 weeks); “negative (inactive)” (rat, strain Charles River CD (Sprague-Dawley), males, in feed, site: liver, lesion: one or several types, types not named, dosed 52 weeks, study length 52 weeks); “negative (inactive)” (rat, strain Charles River CD (Sprague-Dawley), males, in feed, site: liver, lesion: one or several types, types not named, dosed 104 weeks, study length 104 weeks). The TD50 runs as follows: (rat, strain Charles River CD (Sprague-Dawley), males, in feed, site: any site (literature study), lesion: malignant tumor, dosed 104 weeks, study length 104 weeks) 67800 mg/kg/day (inactive); (rat, strain Charles River CD (Sprague-Dawley), males, in feed, site: any site (literature study), lesion: several types, types named in the paper, dosed 104 weeks, study length 104 weeks) 67800 mg/kg/day (inactive).
Take `Nc1ccc(NC(=O)c2ccc(N)cc2)cc1`: the carcinogen call was “negative (inactive)” (mouse, strain BALB/cLacDp, females, in feed, site: liver, lesion: several types, types named in the paper, dosed 60 weeks, study length 132 weeks); “negative (inactive)” (mouse, strain BALB/cLacDp, males, in feed, site: liver, lesion: several types, types named in the paper, dosed 60 weeks, study length 132 weeks); “negative (inactive)” (mouse, strain BALB/cLacDp, males, in feed, site: lung, lesion: several types, types named in the paper, dosed 60 weeks, study length 132 weeks). For the same molecule, for the setting “mouse, strain BALB/cLacDp, females, in feed, site: lung, lesion: several types, types named in the paper, dosed 60 weeks, study length 132 weeks”, the TD50 is 360 mg/kg/day (inactive).
Regarding `CNc1ncnc2c1ncn2[C@@H]1O[C@H](CO)[C@@H](O)[C@H]1O`, the TD50 reads like this: (mouse, strain Swiss CD-1, females, in drinking water, site: liver, lesion: several types, types named in the paper, dosed 34 weeks, study length 115 weeks) 364 mg/kg/day (inactive); (mouse, strain Swiss CD-1, males, in drinking water, site: liver, lesion: several types, types named in the paper, dosed 34 weeks, study length 118 weeks) 108 mg/kg/day (inactive); (mouse, strain Swiss CD-1, males, in drinking water, site: lung, lesion: one or several types, types not named, dosed 34 weeks, study length 118 weeks) 55.6 mg/kg/day (inactive). For the setting “mouse, strain Swiss CD-1, females, in drinking water, site: lung, lesion: one or several types, types not named, dosed 34 weeks, study length 115 weeks”, the carcinogen call is “negative (inactive)”.
For the molecule `CC[C@H](C)[C@@H]1NC(=O)[C@@H](NC(=O)c2c3nc4c(C(=O)N[C@@H]5C(=O)N[C@@H](C(C)C)C(=O)N6CCC[C@H]6C(=O)N(C)CC(=O)N(C)[C@@H](C(C)C)C(=O)O[C@@H]5C)ccc(C)c4oc-3c(C)c(=O)c2N)[C@@H](C)OC(=O)[C@H](C(C)C)N(C)C(=O)CN(C)C(=O)[C@@H]2CCCN2C1=O` (I: TIP[Sar][NMeV] / II: TVP[Sar][NMeV]; ester I:1-I:C, II:1-II:C; linker I:N-II:N via Actinocin(1to9)), the TD50 was 2.23 mg/kg/day (rat, strain BR 46, males, i.v., site: any site (literature study), lesion: benign tumor, dosed 52 weeks, study length 104 weeks); 10.8 mg/kg/day (rat, strain BR 46, males, i.v., site: any site (literature study), lesion: malignant tumor, dosed 52 weeks, study length 104 weeks); 1.68 mg/kg/day (rat, strain BR 46, males, i.v., site: any site (literature study), lesion: several types, types named in the paper, dosed 52 weeks, study length 104 weeks).
Take `CN(N=O)c1cccnc1`: the carcinogen call by setting is: (rat, strain BD VI, females, by gavage, site: any site (literature study), lesion: benign tumor, dosed 116 weeks, study length 116 weeks) “negative (inactive)”; (rat, strain BD VI, females, by gavage, site: any site (literature study), lesion: several types, types named in the paper, dosed 116 weeks, study length 116 weeks) “negative (inactive)”; (rat, strain BD VI, females, by gavage, site: liver, lesion: several types, types named in the paper, dosed 116 weeks, study length 116 weeks) “negative (inactive)”. Besides, the TD50 (rat, strain BD VI, females, by gavage, site: any site (literature study), lesion: malignant tumor, dosed 116 weeks, study length 116 weeks) was 6.09 mg/kg/day (inactive).
For the molecule `CC(O)CN(C)N=O` (centres undefined), for the setting “rat, strain F344/DuCrj, males, in drinking water, site: liver, lesion: one or several types, types not named, dosed 40 weeks, study length 78 weeks”, the carcinogen call is “negative (inactive)”. For the same molecule, the TD50 by setting is: (rat, strain Fischer 344, females, in drinking water, site: esophagus, lesion: carcinoma, dosed 30 weeks, study length 75 weeks) 0.408 mg/kg/day; (rat, strain Fischer 344, females, in drinking water, site: esophagus, lesion: several types, types named in the paper, dosed 30 weeks, study length 75 weeks) 0.105 mg/kg/day; (rat, strain Fischer 344, females, in drinking water, site: liver, lesion: hepatocellular carcinoma, dosed 30 weeks, study length 75 weeks) 0.895 mg/kg/day; (rat, strain Fischer 344, females, in drinking water, site: liver, lesion: neoplastic nodule, dosed 30 weeks, study length 75 weeks) 2.54 mg/kg/day; (rat, strain Fischer 344, females, in drinking water, site: liver, lesion: several types, types named in the paper, dosed 30 weeks, study length 75 weeks) 0.798 mg/kg/day; (rat, strain Fischer 344, females, in drinking water, site: lung, lesion: several types, types named in the paper, dosed 30 weeks, study length 75 weeks) 0.408 mg/kg/day. The TD50 is, setting by setting: (rat, strain Fischer 344, females, in drinking water, site: nasal cavity, lesion: several types, types named in the paper, dosed 30 weeks, study length 75 weeks) 0.0486 mg/kg/day; (rat, strain Fischer 344, males, in drinking water, site: esophagus, lesion: several types, types named in the paper, dosed 30 weeks, study length 75 weeks) 0.17 mg/kg/day; (rat, strain Fischer 344, males, in drinking water, site: nasal cavity, lesion: several types, types named in the paper, dosed 30 weeks, study length 75 weeks) 0.0442 mg/kg/day.
